Reference: US6780891B2, “Tramadol analogs and uses thereof” (Sepracor Inc., priority 2001, dated 2004)
Several values for one entry are separate records, joined by “and”; a condition that tells them apart may be missing. Equal values may be shown once. Where a name gives a salt, the structure may show the parent alone. Read-outs that look alike come from different tables or passages of the source.

How the values were obtained:
[1] = target: T1, μ receptor (Rattus norvegicus, UniProt P33535); settings: for Affinity for the μ receptor compared with ODMT and racemic tramadol: comparison in words of Table 1 values
T1 sequence (P33535 whole entry): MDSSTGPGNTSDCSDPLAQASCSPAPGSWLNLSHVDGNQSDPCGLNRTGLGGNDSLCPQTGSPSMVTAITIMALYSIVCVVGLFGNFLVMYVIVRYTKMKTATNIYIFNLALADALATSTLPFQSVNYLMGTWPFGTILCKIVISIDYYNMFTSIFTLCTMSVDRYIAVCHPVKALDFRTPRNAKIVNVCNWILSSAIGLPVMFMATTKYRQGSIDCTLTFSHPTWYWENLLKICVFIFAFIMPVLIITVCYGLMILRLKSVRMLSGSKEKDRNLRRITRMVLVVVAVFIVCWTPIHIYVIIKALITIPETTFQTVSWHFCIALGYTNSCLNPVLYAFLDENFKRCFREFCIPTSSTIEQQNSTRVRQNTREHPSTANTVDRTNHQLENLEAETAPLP

[2] = tested on: NE uptake; assay type: biochemical, Rat; settings: for IC50: read-out: IC50, functional monoamine uptake, NE
[3] = target: T2, κ receptor (Cavia porcellus, UniProt P41144); assay: κ opioid receptor binding, [3H]U 69593; settings: guinea-pig cerebellum, [3H]U 69593 0.7 nM, 80 minutes/22° C.
T2 construct: Following incubation, the membranes were rapidly filtered under vacuum through glass fiber filters; from tissue
T2 sequence (P41144 whole entry): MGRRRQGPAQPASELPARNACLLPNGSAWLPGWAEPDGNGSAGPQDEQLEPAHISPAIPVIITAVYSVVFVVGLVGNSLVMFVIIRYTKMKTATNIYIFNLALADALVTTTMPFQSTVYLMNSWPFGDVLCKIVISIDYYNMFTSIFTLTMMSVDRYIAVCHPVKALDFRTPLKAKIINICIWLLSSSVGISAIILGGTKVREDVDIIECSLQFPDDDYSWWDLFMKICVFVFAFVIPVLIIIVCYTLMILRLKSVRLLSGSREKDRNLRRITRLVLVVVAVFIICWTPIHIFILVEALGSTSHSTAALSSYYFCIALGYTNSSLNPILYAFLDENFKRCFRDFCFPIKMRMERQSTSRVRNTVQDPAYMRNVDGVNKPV

[4] = target: T1, μ receptor; assay: biochemical; settings: IC50, opioid binding, rat cerebral cortex, [3H]DAMGO 1 nM, 60 minutes/22° C.
[5] = target: T3, δ receptor (Cavia porcellus, UniProt A0A286XTF2); assay: δ opioid receptor binding, [3H]DPDPE; parameters: species or system Guinea-pig
T3 construct: Following incubation, the membranes were rapidly filtered under vacuum through glass fiber filters; from tissue
T3 sequence (A0A286XTF2 1-366): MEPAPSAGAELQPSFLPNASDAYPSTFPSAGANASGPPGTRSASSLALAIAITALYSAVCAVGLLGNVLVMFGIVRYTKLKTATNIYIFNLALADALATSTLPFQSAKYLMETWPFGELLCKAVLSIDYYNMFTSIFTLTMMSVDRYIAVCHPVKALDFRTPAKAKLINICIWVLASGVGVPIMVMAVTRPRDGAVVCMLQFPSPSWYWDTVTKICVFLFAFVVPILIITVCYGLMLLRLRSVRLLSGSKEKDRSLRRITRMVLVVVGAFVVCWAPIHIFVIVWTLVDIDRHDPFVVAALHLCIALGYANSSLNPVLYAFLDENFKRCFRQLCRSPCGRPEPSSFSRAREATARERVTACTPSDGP

[6] = tested on: 5-HT uptake; assay: Functional monoamine uptake: 5-HT uptake, rat brain synaptosomes; assay type: biochemical; settings: for IC50: rat brain synaptosomes, [3H]5-HT, 15 min./37° C.; for Blocking 5-HT uptake compared with racemic tramadol and ODMT: comparison in words of Table 1 values
[7] = tested on: DA uptake; assay: Functional monoamine uptake: DA uptake, rat corpora striatum synaptosomes; assay type: biochemical; settings: [3H]DA, 15 min./37° C.
Method: Radioactivity was determined with a scintillation counter (Topcount, Packard) using a liquid scintillation cocktail (Microscint 0, Packard).
These parameters were obtained by Hill equation curve fitting.

[8] = rat hypothalamus, [3H]NE, 20 min./37° C.

Row | Compound | IC50 [2, 8] | IC50 [3] | IC50 [4] | IC50 [5] | IC50 [6] | IC50 [2] | also measured
1 | COC1(c2cccc(O)c2)CCCCC1CN(C)C (racemic) [(R,R/S,S)-ODMOMT, (+/−)-cis-Desmethylmethyltramadol] | 120 nM | 789 nM | 56 nM | 4920 nM | 2600 nM | – | Affinity for the μ receptor compared with ODMT and racemic tramadol [1]: comparable to the corresponding enantiomer/racemate of ODMT, and much greater than that of racemic tramadol; Blocking NE uptake compared with racemic tramadol or (S,S)-ODMT [2]: more effective at blocking NE uptake than racemic tramadol or (S,S)-ODMT
2 | CN(C)CC1CCCCC1(O)c1cccc(O)c1 (racemic) [(R,R/S,S)-ODMT, O-desmethyltramadol, reference compound] | – | 3150 nM | – | 7710 nM | 4000 nM | – | –
3 | COc1cccc(C2(OC)CCCCC2CN(C)C)c1 (racemic) [(R,R/S,S)-OMT, O-Methyltramadol] | – | – | 7870 nM | – | 550 nM | 29 nM | Blocking NE uptake compared with racemic tramadol or (S,S)-ODMT [2]: more effective at blocking NE uptake than racemic tramadol or (S,S)-ODMT; Blocking 5-HT uptake compared with racemic tramadol and ODMT [6]: more effective at blocking at 5-HT uptake than racemic tramadol, (R,R)- or (S,S)-ODMT or racemic ODMT
4 | COc1cccc(C2(O)CCCCC2CN(C)C)c1 (racemic) [(R,R/S,S)-Tramadol, reference compound] | – | – | 8270 nM and 7640 nM | – | – | – | –
5 | COc1cccc([C@@]2(OC)CCCC[C@H]2CN(C)C)c1.O=C(O)/C=C/C(=O)O (relative stereo) [(R,S/S,R)-OMT, (+/−)-trans-O-Methyltramadol Fumaric Acid] | 560 nM | – | – | – | 290 nM | – | IC50 ([1]; read-out: IC50, opioid binding, μ, rat cerebral cortex, [3H]DAMGO 1 nM, 60 minutes/22° C.): 3290 nM; IC50 [7]: 7600 nM; Blocking 5-HT uptake compared with racemic tramadol and ODMT [6]: more effective at blocking at 5-HT uptake than racemic tramadol, (R,R)- or (S,S)-ODMT or racemic ODMT
6 | CN(C)CC1CCCCC1(O)c1cccc(O)c1 (single isomer, unassigned) [(R,R)-ODMT, O-desmethyltramadol, reference compound] | – | 1610 nM | – | 4530 nM | 3300 nM | – | –
7 | CN(C)CC1CCCCC1(O)c1cccc(O)c1 (single isomer, unassigned) [(S,S)-ODMT, HCl, reference compound] | 7100 nM | – | – | – | – | – | IC50 ([6]; HCl): 4400 nM
8 | COC1(c2cccc(O)c2)CCCCC1CN(C)C [(R,R)-ODMOMT, (1R,2R)-(+)-Desmethylmethyltramadol] | 6800 nM | 427 nM | 30 nM | 2850 nM | 2100 nM | – | Affinity for the μ receptor compared with ODMT and racemic tramadol [1]: comparable to the corresponding enantiomer/racemate of ODMT, and much greater than that of racemic tramadol
9 | COc1cccc(C2(OC)CCCCC2CN(C)C)c1 [(R,R)-OMT, (R,R)-(+)-O-Methyltramadol] | – | – | 7670 nM | – | 650 nM | 4000 nM | Blocking 5-HT uptake compared with racemic tramadol and ODMT [6]: more effective at blocking at 5-HT uptake than racemic tramadol, (R,R)- or (S,S)-ODMT or racemic ODMT
10 | CO[C@@]1(c2cccc(O)c2)CCCC[C@H]1CN(C)C [(S,S)-ODMOMT, (1S,2S)-(−)-Desmethylmethyltramadol] | 51 nM | 2440 nM | 566 nM | – | 5000 nM | – | Affinity for the μ receptor compared with ODMT and racemic tramadol [1]: comparable to the corresponding enantiomer/racemate of ODMT, and much greater than that of racemic tramadol; Blocking NE uptake compared with racemic tramadol or (S,S)-ODMT [2]: more effective at blocking NE uptake than racemic tramadol or (S,S)-ODMT
11 | CNCCCC1c2ccccc2C=Cc2ccccc21 [Protriptyline, reference compound] | – | – | – | – | – | 40 nM and 26 nM | –
12 | (+/−)-trans-O-Methyldidesmethyltramadol HCl [(R,S/S,R)-NDMOMT] | – | – | – | – | 16000 nM | – | –
13 | O-methyl tramadol [(S,S)-OMT] | – | – | – | – | – | 16000 nM | –
